From paper PMC6272127, “Synthesis, Antiproliferative Activity and Molecular Properties Predictions of Galloyl Derivatives” (Molecules, 2015)
Values after ≈ are worked out from the molar mass of the structure shown.

What was measured:
U251 (glioma, CNS) = experiment: cells; conditions: for TGI: U251, total growth inhibition, 48 h
Method: The GI50 values (growth inhibitory activity) (Table 1) refer to the drug concentration that produces a 50% reduction of cellular growth compared with the untreated control cells. The TGI (cytostatic activity) and LC50 (cytotoxic activity) values (Table 2) refer to the drug concentration required for total growth inhibition and killing 50% of the cells, respectively.
The synthesized compounds were assessed in the following ten human tumor cell lines from various tissues kindly provide by the National Cancer Institute (Frederick, MD, USA): U251 (glioma, CNS), MCF-7 (breast), NCI-ADR/RES (breast expressing the multiple drug resistance phenotype), 786-0 (renal), NCI-H460 (lung, non-small cells), PC-3 (prostate), OVCAR-3 (ovarian), HT-29 (colon), K-562 (leukemia) and HaCaT (keratinocytes). Stock cultures were grown in media containing 5 mL of RPMI 1640 (Gibco BRL) supplemented with 5% fetal bovine serum. Gentamicin ([…]) was added to the experimental cultures. Cells in 96-well plates (100 µL cells/well) were exposed to sample concentrations in DMSO/RPMI (0.25, 2.5, 25, and 250 µg/mL) at 37 °C and 5% CO2 for 48 h. […] Next, cells were fixed with 50% trichloroacetic acid, and cell proliferation was determined by spectrophotometric quantification (540 nm) of cellular protein content employing the sulforhodamine B assay. Doxorubicin (0.025–25 µg/mL) was used as a positive control. Three measurements were obtained: first at time point zero (T0, at the beginning of incubation) and then 48 h post-incubation for both the compound-free (C) and tested (T) cells. Cell proliferation was determined using the equation 100 × [(T − T0)/C − T0]. A cytostatic effect was observed when T ≥ T0, while a cytocidal effect occurred when T < T0. The experiments were performed in triplicate.

MCF-7 (breast) = experiment: Anticancer assay in vitro (sulforhodamine B), MCF-7; type: cell-based; conditions: for GI50: MCF-7, 48 h, SRB
Method: (§1) The experiments were performed in triplicate.

OVCAR-3 (ovarian) = experiment: Anticancer assay in vitro (sulforhodamine B), OVCAR-3; type: cell-based; conditions: for GI50: OVCAR-3, 48 h, SRB; for TGI: OVCAR-3, total growth inhibition, 48 h
Method: as §1

HT-29 (colon) = experiment: Anticancer assay in vitro (sulforhodamine B), HT-29; type: cell-based; conditions: for TGI: HT-29, total growth inhibition; for GI50: HT-29, 48 h, SRB
Method: as §1

786-0 (renal) = experiment: cells; type: cell-based; conditions: for TGI: 786-0, total growth inhibition, 48 h; for GI50: 786-0, 48 h, SRB
Method: as §1

K-562 (leukemia) = experiment: cells; type: cell-based; conditions: for GI50: K-562, 48 h, SRB
Method: as §1

[1] = tested on: NCI-ADR/RES (breast expressing the multiple drug resistance phenotype); experiment: cells; type: cell-based; conditions: NCI/ADR-RES, 48 h; for GI50: SRB; for TGI: total growth inhibition
Method: as §1

[2] = tested on: NCI-H460 (lung, non-small cells); experiment: cells; type: cell-based; conditions: for GI50: NCI-H460, 48 h, SRB; for TGI: NCI-H460, total growth inhibition, 48 h
Method: as §1

PC-3 (prostate) = experiment: cells; type: cell-based; conditions: for GI50: PC-3, 48 h, SRB; for TGI: PC-3, total growth inhibition, 48 h
Method: as §1

[3] = Anticancer assay in vitro (sulforhodamine B), HaCaT; type: cell-based; conditions: human, HaCaT keratinocytes, killing 50% of cells, read-out: LC50
Method: as §1

HaCaT (keratinocytes) = experiment: as above; type: cell-based; conditions: 48 h; for GI50: SRB; for TGI: total growth inhibition
Method: as §1

[4] = tested on: ten human tumor cell lines; experiment: Anticancer assay in vitro (sulforhodamine B), statements over the panel of cell lines; type: cell-based
Method: as §1

[5] = MCF-7, total growth inhibition, 48 h
[6] = K-562, total growth inhibition, 48 h

Row | Compound | GI50 (U251 (glioma, CNS); Homo sapiens, U-251, 48 h) | TGI (U251 (glioma, CNS)) | GI50 (MCF-7 (breast); Homo sapiens, MCF7) | TGI (MCF-7 (breast); [5]) | GI50 (OVCAR-3 (ovarian); Homo sapiens) | GI50 (OVCAR-3 (ovarian)) | TGI (OVCAR-3 (ovarian)) | TGI (HT-29 (colon); 48 h) | GI50 (HT-29 (colon); Homo sapiens) | TGI (786-0 (renal)) | GI50 (786-0 (renal); Homo sapiens) | GI50 (K-562 (leukemia); Homo sapiens, K562) | GI50 ([1]; Homo sapiens) | TGI [1] | GI50 ([2]; Homo sapiens) | TGI [2] | GI50 (PC-3 (prostate); Homo sapiens) | GI50 (HaCaT (keratinocytes); Homo sapiens) | TGI (HaCaT (keratinocytes)) | TGI (K-562 (leukemia); [6]) | also measured
1 | NNC(=O)c1cc(O)c(O)c(O)c1 [Compound 3, Galloyl hydrazide] | 1.11 µM | 6.13 µg/mL (≈ 33.3 µM) | 0.85 µM | 2.36 µg/mL | ≤ 0.89 µM | 0.88 µM | 9.77 µg/mL (≈ 53.1 µM) | 3.27 µg/mL (≈ 17.8 µM) | 1.21 µM | 17.98 µg/mL (≈ 97.6 µM) | 1.56 µM | 1.17 µM | 0.91 µM | 2.56 µg/mL (≈ 13.9 µM) | 5.54 µM | 17.35 µg/mL (≈ 94.2 µM) | 3.53 µM | 2.5 µM | 29.02 µg/mL (≈ 158 µM) | – | CC50 (U251 (glioma, CNS); Homo sapiens, U-251, 48 h, read-out: LC50): 31.4 µg/mL (≈ 170 µM); TGI (MCF-7 (breast); MCF-7, as printed in the text): 2.36 µM; CC50 (HT-29 (colon); Homo sapiens, HT-29, killing 50% of cells, 48 h, read-out: LC50 (the source's name)): 26.2 µg/mL (≈ 142 µM); TGI (PC-3 (prostate)): 18.31 µg/mL (≈ 99.4 µM); CC50 at 48 h [3]: > 100 µg/mL
2 | CN(C)c1ccc(/C=N/NC(=O)c2cc(O)c(O)c(O)c2)cc1 [Compound 5, N'-(4-Dimethylaminobenzylidene)galloyl hydrazide] | 24.1 µM | – | 8.61 µM | 20.26 µg/mL | 2.93 µM | – | 41.52 µg/mL (≈ 132 µM) | 48.50 µg/mL (≈ 154 µM) | 16.2 µM | – | 8.93 µM | 2.05 µM | 4.68 µM | 83.07 µg/mL (≈ 263 µM) | 21.6 µM | – | – | 4.05 µM | 18.41 µg/mL (≈ 58.4 µM) | 8.98 µg/mL | CC50 (MCF-7 (breast); Homo sapiens, MCF7, MCF-7, killing 50% of cells, 48 h, read-out: LC50 (the source's name)): 47.9 µg/mL (≈ 152 µM); TGI (K-562 (leukemia); K-562, as printed in the text): 8.98 µM; CC50 at 48 h [3]: 55.3 µg/mL (≈ 175 µM)
3 | COc1ccc(/C=N/NC(=O)c2cc(O)c(O)c(O)c2)cc1 [Compound 7, N'-(4-Methoxybenzylidene)galloyl hydrazide] | 9.14 µM | 64.22 µg/mL (≈ 212 µM) | 15.7 µM | – | 5.98 µM | – | – | – | 25.1 µM | – | 18.9 µM | 8.93 µM | 11.3 µM | 66.56 µg/mL (≈ 220 µM) | 41.1 µM | – | 19.6 µM | 18.1 µM | – | 41.76 µg/mL | cytotoxic efficacy ([4]; OVCAR-3 and K-562 cell lines): did not demonstrate cytotoxic efficacy
4 | Galloyl-2-thioxo-1,3,4-oxadiazole [Compound 9] | – | 14.58 µg/mL | – | 5.06 µg/mL | – | 0.89 µM | 13.62 µg/mL | 13.74 µg/mL | – | 24.68 µg/mL | – | – | – | 15.86 µg/mL | – | 19.43 µg/mL | – | – | 16.53 µg/mL | 11.35 µg/mL | LC50 (U251 (glioma, CNS)): (41.26) µg/mL; GI50 (U251 (glioma, CNS); U251, 48 h, SRB): 4.2 µM; GI50 (MCF-7 (breast)): 1.08 µM; LC50 (OVCAR-3 (ovarian)): (58.99) µg/mL; LC50 (HT-29 (colon)): (58.99) µg/mL; GI50 (HT-29 (colon)): 2.61 µM; GI50 (786-0 (renal)): 8.9 µM; LC50 (K-562 (leukemia)): (58.99) µg/mL; GI50 (K-562 (leukemia)): 1.72 µM; GI50 [1]: 2.83 µM; LC50 [2]: (42.67) µg/mL; GI50 [2]: 8.77 µM; LC50 (PC-3 (prostate)): (56.99) µg/mL; GI50 (PC-3 (prostate)): 6.05 µM; TGI (PC-3 (prostate)): 18.09 µg/mL; GI50 (HaCaT (keratinocytes)): 2.25 µM; GI50 ([4]; bound or range over all (for 4: nine) human tumor cell lines, read-out: GI50 values over the cell lines tested): < 8.9 µM
